Source: patent US8318773B2, “Isoindoline compounds and methods of their use” (Celgene Corporation, priority 2008, dated 2012)

Compound | melting point [°C]
Cc1ccc(NC(=N)NCc2ccc3c(c2)CN(C2CCC(=O)NC2=O)C3=O)cc1Cl.Cl (stereo not drawn) | > 400
CC(=O)Nc1ccc(NC(=O)NCc2ccc3c(c2)CN(C2CCC(=O)NC2=O)C3=O)cc1 (stereo not drawn) [Example 5.13, N-(4-{3-[2-(2,6-Dioxo-piperidin-3-yl)-1-oxo-2,3-dihydro-1H-isoindol-5-ylmethyl]-ureido}-phenyl)-acetamide] | 265 to 267
Cc1ccc(N/C(=N\C#N)NCc2ccc3c(c2)CN(C2CCC(=O)NC2=O)C3=O)cc1Cl (stereo not drawn) [Example 5.30, N″-(3-Chloro-4-methyl-phenyl)-N′-[2-(2,6-dioxo-piperidin-3-yl)-1-oxo-2,3-dihydro-1H-isoindol-5-ylmethyl]-N-cyano-guanidine] | 325 to 327
O=C1CCC(N2Cc3cc(CNC(=O)Nc4ccc(-c5ncc[nH]5)cc4)ccc3C2=O)C(=O)N1 (stereo not drawn) [Example 5.31, 1-[2-(2,6-Dioxo-piperidin-3-yl)-1-oxo-2,3-dihydro-1H-isoindol-5-ylmethyl]-3-[4-(1H-imidazol-2-yl)-phenyl]-urea] | 190 to 192
O=C1CCC(N2Cc3cc(CNC(=O)Nc4ccc(Cl)c(-c5nc6ccccc6[nH]5)c4)ccc3C2=O)C(=O)N1 (stereo not drawn) [Example 5.32, 1-[3-(1H-Benzoimidazol-2-yl)-4-chloro-phenyl]-3-[2-(2,6-dioxo-piperidin-3-yl)-1-oxo-2,3-dihydro-1H-isoindol-5-ylmethyl]-urea] | 275 to 277
NC(=O)[C@H]1CC[C@@H](NC(=O)NCc2ccc3c(c2)CN(C2CCC(=O)NC2=O)C3=O)CC1 (stereo partly drawn) [Example 5.43, 4-{3-[2-(2,6-Dioxo-piperidin-3-yl)-1-oxo-2,3-dihydro-1H-isoindol-5-ylmethyl]-ureido}-cyclohexanecarboxylic acid amide] | 195 to 197
CC(C)(C)OC(=O)N1CCc2cc(NC(=O)NCc3ccc4c(c3)CN(C3CCC(=O)NC3=O)C4=O)ccc2C1 (stereo not drawn) [Example 5.46, 6-{3-[2-(2,6-Dioxo-piperidin-3-yl)-1-oxo-2,3-dihydro-1H-isoindol-5-ylmethyl]-ureido}-3,4-dihydro-1H-isoquinoline-2-carboxylic acid tert-butyl ester] | 230 to 232
CC(NC(=O)NCc1ccc2c(c1)CN(C1CCC(=O)NC1=O)C2=O)c1ccc(Cl)c(Cl)c1 (stereo not drawn) [Example 5.60, 1-[1-(3,4-Dichloro-phenyl)-ethyl]-3-[2-(2,6-dioxo-piperidin-3-yl)-1-oxo-2,3-dihydro-1H-isoindol-5-ylmethyl]-urea] | 200 to 202
COCCOCCOc1ccc(NC(=O)NCc2ccc3c(c2)CN(C2CCC(=O)NC2=O)C3=O)cc1Cl (stereo not drawn) [Example 5.61, 1-(3-Chloro-4-(2-(2-methoxyethoxy)ethoxy)phenyl)-3-((2-(2,6-dioxopiperidin-3-yl)-1-oxoisoindolin-5-yl)methyl)urea] | 188 to 190
